In patent US20260049085A1, “CYCLIC COMPOUNDS AND METHODS OF USING SAME” (SCHRÖDINGER, INC., priority 2022, published 2026):

Each molecule was assayed against T1, full-length MALT1 protein His-MALT1(1-824) (Homo sapiens, UniProt Q9UDY8) (assay: MALT1 protease assay (Ac-LRSR-AMC tetrapeptide substrate, fluorescence)). Details: 1 nM MALT1, 25 μM Ac-LRSR-AMC, 2 h pre-incubation, 8 hr incubation at RT.
T1 construct: full-length MALT1 protein His-MALT1(1-824); His (N); made in house; host or cells: baculovirus-infected insect cells
T1 sequence (Q9UDY8 1-824): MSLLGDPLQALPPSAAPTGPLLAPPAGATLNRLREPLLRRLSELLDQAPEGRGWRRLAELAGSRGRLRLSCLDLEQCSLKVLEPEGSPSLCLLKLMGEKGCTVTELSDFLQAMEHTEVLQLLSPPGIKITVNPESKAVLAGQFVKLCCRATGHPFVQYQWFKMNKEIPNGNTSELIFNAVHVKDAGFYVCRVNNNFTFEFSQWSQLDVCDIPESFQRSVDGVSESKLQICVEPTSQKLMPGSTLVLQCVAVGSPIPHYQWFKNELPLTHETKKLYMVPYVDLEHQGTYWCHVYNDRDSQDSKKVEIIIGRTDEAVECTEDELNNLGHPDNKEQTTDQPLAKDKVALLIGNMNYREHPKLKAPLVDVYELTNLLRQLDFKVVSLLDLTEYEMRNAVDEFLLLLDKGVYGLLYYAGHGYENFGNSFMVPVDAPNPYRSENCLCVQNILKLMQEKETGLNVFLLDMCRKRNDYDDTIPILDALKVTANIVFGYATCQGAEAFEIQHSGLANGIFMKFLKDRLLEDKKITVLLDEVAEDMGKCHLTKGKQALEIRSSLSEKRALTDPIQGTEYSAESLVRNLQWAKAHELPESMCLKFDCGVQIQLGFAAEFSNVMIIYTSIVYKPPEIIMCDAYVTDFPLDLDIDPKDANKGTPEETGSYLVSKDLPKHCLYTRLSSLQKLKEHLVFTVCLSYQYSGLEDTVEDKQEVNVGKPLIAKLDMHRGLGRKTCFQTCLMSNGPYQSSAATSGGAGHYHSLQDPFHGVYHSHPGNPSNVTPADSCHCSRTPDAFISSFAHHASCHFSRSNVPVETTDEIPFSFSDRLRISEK
Type: biochemical
In short: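 Full-length His-MALT1(1-824) from baculovirus-infected insect cells (1 nM) was pre-incubated 2 h at RT with compounds (0.1% DMSO), then 25 μM Ac-LRSR-AMC added in 50 mM Tris pH 7.5, 600 mM sodium citrate, 1 mM DTT, 1 mM EDTA, 0.05% BSA. Fluorescence (ex 355/em 460 nm) read after 8 h at RT; IC50 by non-linear regression of % remaining activity.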

Compound	IC50
C[C@@]1(c2cnn(C(F)F)c2)C[C@@H](C(=O)Nc2cnc(-c3ncncc3F)c(C(F)(F)F)c2)c2cnc3cc(F)nn3c21 (single isomer, unassigned) [Example 119]	≥ 1000 nM
CC(F)(F)n1cc([C@]2(C)C[C@@H](C(=O)Nc3cnc(-n4nccn4)c(Cl)c3)c3cnc4cc(F)nn4c32)cn1 (single isomer, unassigned) [Example 121]	≥ 1000 nM
C[C@@]1(c2ccn(C(F)F)n2)C[C@@H](C(=O)Nc2cnc(-n3nccn3)c(C(F)(F)F)c2)c2cnc3cc(F)nn3c21 (single isomer, unassigned) [Example 125]	≥ 1000 nM
C[C@@]1(c2ccn(C(F)F)n2)C[C@@H](C(=O)Nc2cnc(-c3ncccn3)c(C(F)(F)F)c2)c2cnc3cc(F)nn3c21 (single isomer, unassigned) [Example 137]	≥ 1000 nM
C[C@@]1(c2ccn(C(F)F)n2)C[C@@H](C(=O)Nc2cnc(-c3ncccn3)c(Cl)c2)c2cnc3cc(F)nn3c21 (single isomer, unassigned) [Example 141]	≥ 1000 nM
C[C@@]1(c2ccn(C(F)F)n2)C[C@H](C(=O)Nc2cnc(-c3ncccn3)c(Cl)c2)c2cnc3cc(F)nn3c21 (single isomer, unassigned) [Example 142]	≥ 1000 nM
C[C@]1(c2ccn(C(F)F)n2)C[C@@H](C(=O)Nc2cnc(-c3ncccn3)c(Cl)c2)c2cnc3cc(F)nn3c21 (single isomer, unassigned) [Example 143]	≥ 1000 nM
Cn1ccc([C@]2(C)C[C@@H](C(=O)Nc3cnc(-n4nccn4)c(C(F)(F)F)c3)c3cnc4cc(F)nn4c32)n1 (single isomer, unassigned) [Example 145]	≥ 1000 nM
C[C@@]1(c2cnn(C(F)F)c2)C[C@@H](C(=O)Nc2cnc(-c3ncccn3)c(C(F)(F)F)c2)c2cnc3cc(F)nn3c21 (single isomer, unassigned) [Example 149]	≥ 1000 nM
C[C@]1(c2cnn(C(F)F)c2)C[C@@H](C(=O)Nc2cnc(-c3ncccn3)c(C(F)(F)F)c2)c2cnc3cc(F)nn3c21 (single isomer, unassigned) [Example 151]	100 to 1000 nM
C[C@@]1(c2ccn(C3CC3)n2)C[C@@H](C(=O)Nc2cnc(-n3nccn3)c(Cl)c2)c2cnc3cc(F)nn3c21 (single isomer, unassigned) [Example 153]	≥ 1000 nM
C[C@@]1(c2ccn(C3CC3)n2)C[C@H](C(=O)Nc2cnc(-n3nccn3)c(Cl)c2)c2cnc3cc(F)nn3c21 (single isomer, unassigned) [Example 154]	100 to 1000 nM
C[C@]1(c2ccn(C3CC3)n2)C[C@@H](C(=O)Nc2cnc(-n3nccn3)c(Cl)c2)c2cnc3cc(F)nn3c21 (single isomer, unassigned) [Example 155]	≥ 1000 nM
C[C@@]1(c2cnn(C(F)F)c2)C[C@@H](C(=O)Nc2cnc(-c3ncncc3F)c(Cl)c2)c2cnc3cc(F)nn3c21 (single isomer, unassigned) [Example 157]	≥ 1000 nM
CC1(n2ccc([C@]3(C)C[C@@H](C(=O)Nc4cnc(-c5ncccn5)c(C(F)(F)F)c4)c4cnc5cc(F)nn5c43)n2)CC1 (single isomer, unassigned) [Example 159]	≥ 1000 nM
CC1(n2ccc([C@]3(C)C[C@H](C(=O)Nc4cnc(-c5ncccn5)c(C(F)(F)F)c4)c4cnc5cc(F)nn5c43)n2)CC1 (single isomer, unassigned) [Example 160]	100 to 1000 nM
CC1(n2ccc([C@@]3(C)C[C@@H](C(=O)Nc4cnc(-c5ncccn5)c(C(F)(F)F)c4)c4cnc5cc(F)nn5c43)n2)CC1 (single isomer, unassigned) [Example 161]	≥ 1000 nM
CC1(c2ccn(C(F)F)n2)CC(C(=O)Nc2cnc(-c3cccnn3)c(C(F)(F)F)c2)c2cnc3cc(F)nn3c21 (single isomer, unassigned) [Example 163]	≥ 1000 nM

More lines, now with the values ahead:

IC50	Compound
100 to 1000 nM	CC(F)(F)n1cc([C@]2(C)C[C@H](C(=O)Nc3cnc(-n4nccn4)c(Cl)c3)c3cnc4cc(F)nn4c32)cn1 (single isomer, unassigned) [Example 122]
100 to 1000 nM	CC(F)(F)n1cc([C@@]2(C)C[C@@H](C(=O)Nc3cnc(-n4nccn4)c(Cl)c3)c3cnc4cc(F)nn4c32)cn1 (single isomer, unassigned) [Example 123]
10 to 100 nM	C[C@@]1(c2ccn(C(F)F)n2)C[C@H](C(=O)Nc2cnc(-n3nccn3)c(C(F)(F)F)c2)c2cnc3cc(F)nn3c21 (single isomer, unassigned) [Example 126]
10 to 100 nM	C[C@]1(c2ccn(C(F)F)n2)C[C@@H](C(=O)Nc2cnc(-n3nccn3)c(C(F)(F)F)c2)c2cnc3cc(F)nn3c21 (single isomer, unassigned) [Example 127]
100 to 1000 nM	CC1(c2cnn(C(F)F)c2)CC(C(=O)Nc2cnc(-c3ncc(F)cn3)c(C(F)(F)F)c2)c2cnc3cc(F)nn3c21 (single isomer, unassigned) [Example 133]
100 to 1000 nM	CC1(c2cnn(C(F)F)c2)CC(C(=O)Nc2cnc(-c3ncc(F)cn3)c(Cl)c2)c2cnc3cc(F)nn3c21 (single isomer, unassigned) [Example 135]
100 to 1000 nM	C[C@@]1(c2ccn(C(F)F)n2)C[C@H](C(=O)Nc2cnc(-c3ncccn3)c(C(F)(F)F)c2)c2cnc3cc(F)nn3c21 (single isomer, unassigned) [Example 138]
100 to 1000 nM	C[C@]1(c2ccn(C(F)F)n2)C[C@@H](C(=O)Nc2cnc(-c3ncccn3)c(C(F)(F)F)c2)c2cnc3cc(F)nn3c21 (single isomer, unassigned) [Example 139]
100 to 1000 nM	Cn1ccc([C@]2(C)C[C@H](C(=O)Nc3cnc(-n4nccn4)c(C(F)(F)F)c3)c3cnc4cc(F)nn4c32)n1 (single isomer, unassigned) [Example 146]
100 to 1000 nM	Cn1ccc([C@@]2(C)C[C@@H](C(=O)Nc3cnc(-n4nccn4)c(C(F)(F)F)c3)c3cnc4cc(F)nn4c32)n1 (single isomer, unassigned) [Example 147]
100 to 1000 nM	C[C@@]1(c2cnn(C(F)F)c2)C[C@H](C(=O)Nc2cnc(-c3ncccn3)c(C(F)(F)F)c2)c2cnc3cc(F)nn3c21 (single isomer, unassigned) [Example 150]
< 10 nM	C[C@]1(c2ccn(C3CC3)n2)C[C@H](C(=O)Nc2cnc(-n3nccn3)c(Cl)c2)c2cnc3cc(F)nn3c21 (single isomer, unassigned) [Example 152]
10 to 100 nM	C[C@]1(c2cnn(C(F)F)c2)C[C@H](C(=O)Nc2cnc(-c3ncncc3F)c(Cl)c2)c2cnc3cc(F)nn3c21 (single isomer, unassigned) [Example 156]
10 to 100 nM	CC1(n2ccc([C@@]3(C)C[C@H](C(=O)Nc4cnc(-c5ncccn5)c(C(F)(F)F)c4)c4cnc5cc(F)nn5c43)n2)CC1 (single isomer, unassigned) [Example 158]
10 to 100 nM	CC1(c2ccn(C(F)F)n2)CC(C(=O)Nc2cnc(-c3cccnn3)c(C(F)(F)F)c2)c2cnc3cc(F)nn3c21 (single isomer, unassigned) [Example 162]
< 10 nM	CC(F)(F)n1ccc([C@@]2(C)C[C@H](C(=O)Nc3cnc(-c4ncccn4)c(C(F)(F)F)c3)c3cnc4cc(F)nn4c32)n1 (single isomer, unassigned) [Example 164, (trans)-8-(1-(1,1-difluoroethyl)-1H-pyrazol-3-yl)-2-fluoro-8-methyl-N-(6-(pyrimidin-2-yl)-5-(trifluoromethyl)pyridin-3-yl)-7,8-dihydro-6H-cyclopenta[e]pyrazolo[1,5-a]pyrimidine-6-carboxamide]
